For data set [1], the system named is HL-60. In words: Protection against H2O2-induced human HL60 cells assessed as reduction in DNA damage at 50 uM after 30 mins by comet assay. In kind it is functional, cell-based.
Data set [2] has as its system Trypanosoma brucei brucei. As to the kind of experiment: Antiparasitic activity against Trypanosoma brucei brucei. The class given is functional, organism-based.
Data set [3] in a line: Antioxidant activity assessed as ferric ion reducing activity at 2 nM to 200 uM by FRAP assay. The class given is physicochemical. Conditions: 0.002 µM.
Data set [4] in a line: Cytotoxicity against human HL60 cells assessed as cell viability up to 50 uM after 4 hrs by fluorescence microscopy. In kind it is cell-based. Conditions: hl-60, 4 h.
A short description of data set [5]: Cytotoxicity against human HL60 cells assessed as cell viability up to 50 uM after 24 hrs by fluorescence microscopy. In kind it is cell-based. The conditions noted are these: hl-60, 24 h.
The subject of data set [6] is HL-60. As to the kind of experiment: Protection against H2O2-induced human HL60 cells assessed as reduction in DNA damage at 10 uM after 30 mins by comet assay. The class given is functional, cell-based.
In data set [7] the test system is HL-60. In words: Protection against H2O2-induced human HL60 cells assessed as reduction in DNA damage at 2.5 uM after 30 mins by comet assay. The class given is functional, cell-based.
The subject of data set [8] is HL-60. As to the kind of experiment: Protection against H2O2-induced human HL60 cells assessed as reduction in DNA damage at 1.25 uM after 30 mins by comet assay. The class given is functional, cell-based.
The nature of data set [9]: Cytotoxicity against human HL60 cells assessed as induction of DNA damage at 1.25 to 10 uM after 24 hrs by fluorescence microscopy. The class given is cell-based. The conditions noted are these: hl-60, 24 h.

Experimental findings from ChEMBL document CHEMBL3351910, “Two new antioxidant actinosporin analogues from the calcium alginate beads culture of sponge-associated Actinokineospora sp. strain EG49” (Bioorg Med Chem Lett, 2014) are described below.

Calls of active or inactive are those of the source. The rule behind the calls is not given here.

With `CC1(C)CC(O)CC(C)(C)N1[O]`, the result in the data set with HL-60 [1] was Active.

For the molecule `Cc1cc(O[C@@H]2O[C@@H](C)[C@H](O)[C@@H](O)[C@H]2O)c2c3c(c(O)cc2c1)C(=O)c1c(O[C@@H]2O[C@@H](C)[C@H](O)[C@@H](O)[C@H]2O)cccc1C3=O`, the inhibition entry in data set [2] is “inactive”. Besides, the Activity result in [3] was “Active”; in data set [4], “Non-toxic”; in [5] it was “Toxic”; in data set [9], “Non-toxic”. The outcome with HL-60 [6], in the data set with HL-60 [7] and with HL-60 [8] was Active.

By IC50 is commonly meant the concentration needed to halve the response being measured. High values mean lower potency, low ones higher potency. In turn, `Cc1cc(O[C@@H]2O[C@@H](C)[C@H](O)[C@@H](O)[C@H]2O)c2c3c(c(O[C@@H]4O[C@@H](C)[C@H](O)[C@@H](O)[C@H]4O)cc2c1)C(=O)c1c(O)cccc1C3=O` registered an IC50 in [2] of 15 µM. In other words, the double-digit micromolar range.

As for `Cc1cc(O[C@@H]2O[C@@H](C)[C@H](O)[C@@H](O)[C@H]2O)c2c3c(ccc2c1)C(=O)c1c(O[C@@H]2O[C@@H](C)[C@H](O)[C@@H](O)[C@H]2O)cccc1C3=O`, in [2], the inhibition entry was “inactive”. The Activity entry in data set [3] is on record as “Active”; in [4], “Non-toxic”; in [5], “Non-toxic”; in [9], “Non-toxic”. Moreover, the result with HL-60 [6], in the data set on HL-60 [7] and in the data set with HL-60 [8] was Active.
